# In patent publication US11965034B2, “Antifibrotic activity of CD47 blockade in the liver” (The Board of Trustees of the Leland Stanford Junior …, priority 2017, dated 2024):
# Columns and labels:
# [1] = test system: c-Jun induced mice (bone marrow and skin fibrosis); test: Systemic c-Jun induced bone marrow and skin fibrosis in vivo; set-up: species or system mouse; details: systemic c-Jun induction, drug i.p.
# Description: Blockade of the VEGF and PI3K pathways reverse marrow and skin fibrosis in vivo. Encouraged by these findings, we sought to evaluate the efficacy of blocking the PI3K-AKT pathway in c-Jun mediated fibrosis in vivo. Wortmannin, a potent PI3K inhibitor, was systemically administered to mice for 14 days that were induced to express c-Jun two days prior to drug. […] Any effects on gastroesophageal or bladder were not assessed as the fibrosis in these organs takes longer to develop. Both Rosa26-rtTA control mice were treated with dox and c-Jun-inducible mice were treated with PBS. No fibrosis developed in either control condition in lung or other organs over the same time span. Thus, the PI3K and VEGFR pathways are critical mediators of c-Jun-induced fibrosis in mice and may be also involved in the development of human fibrosing conditions.
# Tissue processing. Animals were sacrificed at times indicated based on an APLAC-approved protocol that includes assessment of morbidity by >10% loss of weight, scruffy appearance and lethargy. […] Images were analyzed in Adobe Photoshop (Adobe Systems, San Jose, CA). […] Flow cytometry was performed on a FACS Aria cytometer (BD Biosciences, San Jose, CA), at least 10,000 events were acquired, and data were analyzed using FlowJo software. […]
# [2] = test system: c-Jun-induced migration of bone marrow-derived stromal cells; test: Transwell migration assay of c-Jun-induced bone marrow-derived stromal cells (in vitro inhibitory screen); type: cell-based, mouse; details: bone marrow-derived stromal cells from c-Jun-inducible mice, dox induced
# Description: Functional evaluation of signaling pathways mediating the fibrogenic response. We next wished to assess the functional relevance of the signaling pathway rewiring induced by transcriptional activation of c-Jun. To enable systematic pharmacological interrogation we sought to develop a c-Jun-dependent in vitro assay. We assessed two cell biological parameters in cultured bone marrow-derived stromal cells from c-Jun-inducible mice. First, we assessed cell growth and observed a shortening of the cell doubling time from about […] in control to about 2 days in c-Jun-induced fibroblasts (FIG. 6A). Second, we measured cell migration of bone marrow-derived stromal cells in a transwell migration assay as a functional readout of the c-Jun induction and observed a 100-fold increase in migration at 2 hours and a 1000-fold increase at 24 hours in c-Jun induced cells versus uninduced cells (FIG. 6B).
# Given its much greater dynamic range, we then tested a series of small molecule inhibitors in the transwell migration assay. […]
# Transwell migration and proliferation assays. For transwell migration assays Costar transwell chambers were used according to the manufacturer's directions and transmigrated adherent cells were fixed and stained and counted by microscopy after periods of 2 hrs and 24 hrs. […]
structure (smiles),measurement,setting,value
CCN(CC)CCCCNc1ncc2cc(-c3cc(OC)cc(OC)c3)c(NC(=O)NC(C)(C)C)nc2n1 [PD173074],bone marrow fibrosis,[1],significantly decreased
same,skin fibrosis (dermal skin thickening and collagen deposition),[1],but not skin fibrosis
same,c-Jun-induced migration,[2],abolish
